How the values were obtained:
Type in all cases: in vivo
[1] = test system: galium (catchweed bedstraw, Galium aparine); assay: Test C postemergence; conditions: Galium, post-emergence, 336 h, Postemergence, scale 0 to 100, read-out: Plant response rating, Galium
Method in brief: (§1)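 Seeds sown in a loam soil and sand blend were treated preemergence; plants in peat-moss/vermiculite medium were sprayed at the 1- to 4-leaf stage (2-18 cm). Chemicals were in a non-phytotoxic surfactant-containing solvent. After 13 to 15 days in a greenhouse, injury was visually rated against controls on a 0-100 scale.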

soybean (Glycine max) [2] = assay: Test C postemergence; conditions: Glycine max, post-emergence, Postemergence, scale 0 to 100, read-out: Plant response rating, Soybean
Method in brief: as §1

corn (Zea mays) [3] = assay: Test C postemergence; conditions: Zea mays, post-emergence, 336 h, Postemergence, scale 0 to 100
Method in brief: as §1

[4] = test system: ragweed (common ragweed, Ambrosia elatior); assay: Test C postemergence; conditions: Ambrosia artemisiifolia, post-emergence, 336 h, Postemergence, scale 0 to 100, read-out: Plant response rating, Ragweed
Method in brief: as §1

[5] = test system: waterhemp (common waterhemp, Amaranthus rudis); assay: Test C postemergence; conditions: Amaranthus tuberculatus, post-emergence, Postemergence, scale 0 to 100, read-out: Plant response rating, Waterhemp
Method in brief: as §1

[6] = test system: lambsquarters (Chenopodium album); assay: Test C postemergence; conditions: Chenopodium album, post-emergence, 336 h, Postemergence, scale 0 to 100, read-out: Plant response rating, Lambsquarters
Method in brief: as §1

[7] = test system: yellow nutsedge (Cyperus esculentus); assay: Test C preemergence; conditions: Cyperus, pre-emergence, 336 h, scale 0 to 100, read-out: Plant response rating, Nutsedge, Yellow
Method in brief: as §1

[8] = test system: johnsongrass (Sorghum halepense); assay: Test C preemergence; conditions: Sorghum halepense, pre-emergence, 336 h, scale 0 to 100, read-out: Plant response rating, Johnsongrass
Method in brief: as §1

[9] = test system: Italian ryegrass (Lolium multiflorum); assay: Test C preemergence; conditions: Lolium multiflorum, pre-emergence, 336 h, scale 0 to 100, read-out: Plant response rating, Ryegrass, Italian
Method in brief: as §1

[10] = test system: large (Lg) crabgrass (Digitaria sanguinalis); assay: Test C preemergence; conditions: Digitaria sanguinalis, pre-emergence, 336 h, scale 0 to 100, read-out: Plant response rating, Crabgrass, Large
Method in brief: as §1

soybean (Glycine max) [11] = assay: Test C preemergence; conditions: Glycine max, pre-emergence, scale 0 to 100, read-out: Plant response rating, Soybean
Method in brief: as §1

[12] = test system: barnyardgrass (Echinochloa crus-galli); assay: Test C preemergence; conditions: Echinochloa crus-galli, pre-emergence, read-out: Plant response rating, Barnyardgrass
Method in brief: as §1

[13] = test system: morningglory (Ipomoea coccinea); assay: Test C preemergence; conditions: Ipomoea, pre-emergence, 336 h, scale 0 to 100, read-out: Plant response rating, Morningglory
Method in brief: as §1

[14] = test system: oilseed rape (Brassica napus); assay: Test C preemergence; conditions: Brassica napus, pre-emergence, scale 0 to 100, read-out: Plant response rating, Oilseed Rape
Method in brief: as §1

[15] = test system: blackgrass (Alopecurus myosuroides); assay: Test C preemergence; conditions: Alopecurus myosuroides, pre-emergence, 336 h, scale 0 to 100, read-out: Plant response rating, Blackgrass
Method in brief: as §1

corn (Zea mays) [16] = assay: Test C preemergence; conditions: Zea mays, pre-emergence, 336 h, scale 0 to 100
Method in brief: as §1

[17] = test system: giant foxtail (Setaria faberii); assay: Test C preemergence; conditions: Setaria faberi, pre-emergence, 336 h, scale 0 to 100, read-out: Plant response rating, Foxtail, Giant
Method in brief: as §1

[18] = test system: velvetleaf (Abutilon theophrasti); assay: Test C preemergence; conditions: Abutilon theophrasti, pre-emergence, scale 0 to 100, read-out: Plant response rating, Velvetleaf
Method in brief: as §1

[19] = test system: pigweed (Amaranthus retroflexus); assay: Test C preemergence; conditions: Amaranthus retroflexus, pre-emergence, 336 h, scale 0 to 100, read-out: Plant response rating, Pigweed
Method in brief: as §1

[20] = test system: waterhemp (common waterhemp, Amaranthus rudis); assay: Test C preemergence; conditions: Amaranthus tuberculatus, pre-emergence, scale 0 to 100, read-out: Plant response rating, Waterhemp
Method in brief: as §1

[21] = test system: lambsquarters (Chenopodium album); assay: Test C preemergence; conditions: Chenopodium album, pre-emergence, 336 h, scale 0 to 100, read-out: Plant response rating, Lambsquarters
Method in brief: as §1

[22] = test system: winter wheat (Triticum aestivum); assay: Test C preemergence; conditions: Triticum aestivum, pre-emergence, 336 h, scale 0 to 100, read-out: Plant response rating, Wheat
Method in brief: as §1

Fc1cccc(Oc2ncc(Cl)cn2)c1Oc1ncc(Cl)cn1 [Compound 21, 2,2′-[[3-fluoro-1,2-phenylene]bis(oxy)]bis[5-chloropyrimidine]]
40%: plant injury at 31 g/ha ([22]; 31 g ai/ha, preemergence)
15%: pest or weed control at 16 g/ha ([6]; 16 g ai/ha)
60%: pest or weed control at 62 g/ha ([4]; 62 g ai/ha) | pest or weed control at 31 g/ha ([5]; 31 g ai/ha)
0%: Corn plant response rating (crop injury, 0 = no effect, 100 = complete kill) at 16 g/ha (corn (Zea mays) [3]; 16 g ai/ha) | pest or weed control at 16 g/ha ([7]; Preemergence, 16 g ai/ha) | plant injury at 16 g/ha ([22]; Preemergence, 16 g ai/ha)
90%: pest or weed control at 125 g/ha ([1]; 125 g ai/ha) | pest or weed control at 125 g/ha ([6]; 125 g ai/ha) | pest or weed control at 125 g/ha ([9]; 125 g ai/ha, preemergence) | plant injury at 31 g/ha (soybean (Glycine max) [11]; 31 g ai/ha, preemergence) | pest or weed control at 62 g/ha ([15]; 62 g ai/ha, preemergence) | pest or weed control at 125 g/ha ([15]; 125 g ai/ha, preemergence) | pest or weed control at 16 g/ha ([17]; Preemergence, 16 g ai/ha) | plant injury at 125 g/ha ([22]; 125 g ai/ha, preemergence)
5%: Corn plant response rating (crop injury, 0 = no effect, 100 = complete kill) at 31 g/ha (corn (Zea mays) [3]; 31 g ai/ha) | Corn plant response rating (crop injury, 0 = no effect, 100 = complete kill) at 62 g/ha (corn (Zea mays) [3]; 62 g ai/ha) | Corn plant response rating (crop injury, 0 = no effect, 100 = complete kill) at 125 g/ha (corn (Zea mays) [3]; 125 g ai/ha) | pest or weed control at 31 g/ha ([7]; 31 g ai/ha, preemergence) | pest or weed control at 16 g/ha ([8]; Preemergence, 16 g ai/ha) | Corn plant response rating (crop injury, 0 = no effect, 100 = complete kill) at 16 g/ha (corn (Zea mays) [16]; Preemergence, 16 g ai/ha)
35%: pest or weed control at 62 g/ha ([7]; 62 g ai/ha, preemergence) | pest or weed control at 16 g/ha ([12]; Preemergence, 16 g ai/ha, scale 0 to 100 (0 no effect, 100 complete control))
95%: plant injury at 62 g/ha (soybean (Glycine max) [2]; 62 g ai/ha) | plant injury at 125 g/ha (soybean (Glycine max) [2]; 125 g ai/ha) | pest or weed control at 125 g/ha ([4]; 125 g ai/ha) | plant injury at 62 g/ha (soybean (Glycine max) [11]; 62 g ai/ha, preemergence)
45%: Corn plant response rating (crop injury, 0 = no effect, 100 = complete kill) at 62 g/ha (corn (Zea mays) [16]; 62 g ai/ha, preemergence)
80%: pest or weed control at 31 g/ha ([1]; 31 g ai/ha) | pest or weed control at 31 g/ha ([13]; 31 g ai/ha, preemergence)
98%: pest or weed control at 62 g/ha ([6]; 62 g ai/ha) | pest or weed control at 125 g/ha ([8]; 125 g ai/ha, preemergence) | pest or weed control at 16 g/ha ([10]; Preemergence, 16 g ai/ha) | plant injury at 125 g/ha (soybean (Glycine max) [11]; 125 g ai/ha, preemergence) | pest or weed control at 125 g/ha ([13]; 125 g ai/ha, preemergence) | plant injury at 16 g/ha ([14]; Preemergence, 16 g ai/ha) | Corn plant response rating (crop injury, 0 = no effect, 100 = complete kill) at 125 g/ha (corn (Zea mays) [16]; 125 g ai/ha, preemergence) | pest or weed control at 125 g/ha ([21]; 125 g ai/ha, preemergence)
85%: pest or weed control at 62 g/ha ([1]; 62 g ai/ha) | pest or weed control at 125 g/ha ([7]; 125 g ai/ha, preemergence) | pest or weed control at 62 g/ha ([8]; 62 g ai/ha, preemergence) | pest or weed control at 62 g/ha ([9]; 62 g ai/ha, preemergence) | plant injury at 16 g/ha (soybean (Glycine max) [11]; Preemergence, 16 g ai/ha) | pest or weed control at 31 g/ha ([12]; 31 g ai/ha, preemergence, scale 0 to 100) | pest or weed control at 62 g/ha ([13]; 62 g ai/ha, preemergence)
10%: pest or weed control at 16 g/ha ([9]; Preemergence, 16 g ai/ha)
25%: Corn plant response rating (crop injury, 0 = no effect, 100 = complete kill) at 31 g/ha (corn (Zea mays) [16]; 31 g ai/ha, preemergence)
65%: plant injury at 31 g/ha (soybean (Glycine max) [2]; 31 g ai/ha) | pest or weed control at 125 g/ha ([5]; 125 g ai/ha)
50%: pest or weed control at 62 g/ha ([5]; 62 g ai/ha) | pest or weed control at 31 g/ha ([8]; 31 g ai/ha, preemergence) | pest or weed control at 31 g/ha ([9]; 31 g ai/ha, preemergence) | plant injury at 62 g/ha ([22]; 62 g ai/ha, preemergence)
70%: pest or weed control at 16 g/ha ([1]; 16 g ai/ha) | pest or weed control at 31 g/ha ([6]; 31 g ai/ha) | pest or weed control at 16 g/ha ([13]; Preemergence, 16 g ai/ha)
100%: pest or weed control at 31 g/ha ([10]; 31 g ai/ha, preemergence) | pest or weed control at 62 g/ha ([10]; 62 g ai/ha, preemergence) | pest or weed control at 125 g/ha ([10]; 125 g ai/ha, preemergence) | pest or weed control at 62 g/ha ([12]; 62 g ai/ha, preemergence, scale 0 to 100) | pest or weed control at 125 g/ha ([12]; 125 g ai/ha, preemergence, scale 0 to 100) | plant injury at 31 g/ha ([14]; 31 g ai/ha, preemergence) | plant injury at 62 g/ha ([14]; 62 g ai/ha, preemergence) | plant injury at 125 g/ha ([14]; 125 g ai/ha, preemergence) | pest or weed control at 31 g/ha ([17]; 31 g ai/ha, preemergence) | pest or weed control at 62 g/ha ([17]; 62 g ai/ha, preemergence) | pest or weed control at 125 g/ha ([17]; 125 g ai/ha, preemergence) | pest or weed control at 31 g/ha ([18]; 31 g ai/ha, preemergence) | pest or weed control at 62 g/ha ([18]; 62 g ai/ha, preemergence) | pest or weed control at 125 g/ha ([18]; 125 g ai/ha, preemergence) | pest or weed control at 16 g/ha ([18]; Preemergence, 16 g ai/ha) | pest or weed control at 31 g/ha ([19]; 31 g ai/ha, preemergence) | pest or weed control at 62 g/ha ([19]; 62 g ai/ha, preemergence) | pest or weed control at 125 g/ha ([19]; 125 g ai/ha, preemergence) | pest or weed control at 16 g/ha ([19]; Preemergence, 16 g ai/ha) | pest or weed control at 31 g/ha ([20]; 31 g ai/ha, preemergence) | pest or weed control at 62 g/ha ([20]; 62 g ai/ha, preemergence) | pest or weed control at 125 g/ha ([20]; 125 g ai/ha, preemergence) | pest or weed control at 16 g/ha ([20]; Preemergence, 16 g ai/ha) | pest or weed control at 31 g/ha ([21]; 31 g ai/ha, preemergence) | pest or weed control at 62 g/ha ([21]; 62 g ai/ha, preemergence) | pest or weed control at 16 g/ha ([21]; Preemergence, 16 g ai/ha)
30%: pest or weed control at 31 g/ha ([4]; 31 g ai/ha) | pest or weed control at 31 g/ha ([15]; 31 g ai/ha, preemergence) | pest or weed control at 16 g/ha ([15]; Preemergence, 16 g ai/ha)

Source: patent US20170190671A1, “BIS(ARYL)CATECHOL DERIVATIVES AS HERBICIDES” (E I DU PONT DE NEMOURS AND COMPANY, priority 2014, published 2017)
